Literature values, collected in patent EP0268928A2, “Safened pesticidal dispersion resin compositions for controlling soil borne pests and process for the preparation thereof” (priority 1986, dated 1988).

System: rats
Conditions: technical grade

For CCOP(=S)(OCC)SCSCC [phorate, 0,0-diethyl-S-(ethylthiomethyl)phosphorodithioate], the “acute oral LD50 value in rats” value is listed as 1.6-3.7 mg technical/kg.
